Experimental data published in the supplement of paper PMC11451515.

Test system: NOMO1
Test: cell viability relative to DMSO control; higher = less cytotoxic
Conditions: 48 h
Method in brief: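 Viability, reported as a per-plate percentage of DMSO wells with cell-free wells as background, came from CellTiter-Glo One luminescence. Reading took place after 48 h at 37°C. Before that, NOMO1 or SEM (500 cells/well) or P12-Ichikawa (1000 cells/well) leukemia cells, adapted for at least four passages in each medium, were seeded in 1536-well plates (5 μl) and pin-dosed with library compounds in DMSO, 47 μM to 0.79 nM over 11 threefold points.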

[1] = HPLM + 10% dialyzed FBS, 0.000781 µM
[2] = HPLM + 10% dialyzed FBS, 0.00234 µM
[3] = HPLM + 10% dialyzed FBS, 0.00702 µM
[4] = HPLM + 10% dialyzed FBS, 0.0211 µM
[5] = HPLM + 10% dialyzed FBS, 0.0632 µM
[6] = HPLM + 10% dialyzed FBS, 0.19 µM
[7] = HPLM + 10% dialyzed FBS, 0.569 µM
[8] = HPLM + 10% dialyzed FBS, 1.71 µM
[9] = HPLM + 10% dialyzed FBS, 5.12 µM
[10] = HPLM + 10% dialyzed FBS, 15.4 µM
[11] = HPLM + 10% dialyzed FBS, 46.1 µM
[12] = RPMI 5 mM glucose + 10% FBS, 0.000781 µM
[13] = RPMI 5 mM glucose + 10% FBS, 0.00234 µM
[14] = RPMI 5 mM glucose + 10% FBS, 0.00702 µM
[15] = RPMI 5 mM glucose + 10% FBS, 0.0211 µM
[16] = RPMI 5 mM glucose + 10% FBS, 0.0632 µM
[17] = RPMI 5 mM glucose + 10% FBS, 0.19 µM
[18] = RPMI 5 mM glucose + 10% FBS, 0.569 µM
[19] = RPMI 5 mM glucose + 10% FBS, 1.71 µM
[20] = RPMI 5 mM glucose + 10% FBS, 5.12 µM
[21] = RPMI 5 mM glucose + 10% FBS, 15.4 µM
[22] = RPMI 5 mM glucose + 10% FBS, 46.1 µM
[23] = RPMI 5 mM glucose + 10% dialyzed FBS, 0.000781 µM
[24] = RPMI 5 mM glucose + 10% dialyzed FBS, 0.00234 µM
[25] = RPMI 5 mM glucose + 10% dialyzed FBS, 0.00702 µM
[26] = RPMI 5 mM glucose + 10% dialyzed FBS, 0.0211 µM
[27] = RPMI 5 mM glucose + 10% dialyzed FBS, 0.0632 µM
[28] = RPMI 5 mM glucose + 10% dialyzed FBS, 0.19 µM
[29] = RPMI 5 mM glucose + 10% dialyzed FBS, 0.569 µM
[30] = RPMI 5 mM glucose + 10% dialyzed FBS, 1.71 µM
[31] = RPMI 5 mM glucose + 10% dialyzed FBS, 5.12 µM
[32] = RPMI 5 mM glucose + 10% dialyzed FBS, 15.4 µM
[33] = RPMI 5 mM glucose + 10% dialyzed FBS, 46.1 µM

Row | Compound | cell viability [1] | cell viability [2] | cell viability [3] | cell viability [4] | cell viability [5] | cell viability [6] | cell viability [7] | cell viability [8] | cell viability [9] | cell viability [10] | cell viability [11] | cell viability [12] | cell viability [13] | cell viability [14] | cell viability [15] | cell viability [16] | cell viability [17] | cell viability [18] | cell viability [19] | cell viability [20] | cell viability [21] | cell viability [22] | cell viability [23] | cell viability [24] | cell viability [25] | cell viability [26] | cell viability [27] | cell viability [28] | cell viability [29] | cell viability [30] | cell viability [31] | cell viability [32] | cell viability [33]
1 | Cc1ccc(Nc2nccc(N(C)c3ccc4c(C)n(C)nc4c3)n2)cc1[S+](N)(=O)[O-] | 107% | 118% | 102% | 112% | 121% | 129% | 126% | 112% | 132% | 112% | 50.9% | 93.9% | 101% | 92.1% | 103% | 99.5% | 101% | 107% | 114% | 105% | 100% | 50.3% | 95.8% | 92.1% | 102% | 85.4% | 104% | 112% | 105% | 123% | 110% | 97.2% | 71.1%
2 | COc1cc2nc(N3CCN(C(=O)c4ccco4)CC3)nc(N)c2cc1OC | 77.8% | 103% | 93.7% | 97% | 98.3% | 105% | 105% | 92.8% | 91.8% | 43% | 5.27% | 72.1% | 78.4% | 81.6% | 83.9% | 87.5% | 91.9% | 82.2% | 85.1% | 90.7% | 95.9% | 4.8% | 72% | 83.6% | 82.1% | 80.5% | 90% | 92.2% | 95.2% | 98.2% | 80.4% | 88.4% | 4.29%
3 | CCCCCCCN(CC)CCCC(O)c1ccc(NS(C)(=O)=O)cc1.CCCCCCCN(CC)CCCC(O)c1ccc(NS(C)(=O)=O)cc1.O=C(O)/C=C/C(=O)O (stereo not drawn) | 117% | 112% | 126% | 126% | 114% | 126% | 127% | 108% | 122% | 112% | 102% | 94.3% | 108% | 105% | 99.8% | 107% | 106% | 97.1% | 107% | 101% | 107% | 110% | 110% | 114% | 107% | 100% | 99.9% | 124% | 103% | 109% | 114% | 112% | 90.3%
4 | CCNC(=O)c1noc(-c2cc(C(C)C)c(O)cc2O)c1-c1ccc(CN2CCOCC2)cc1 | 91.6% | 98.5% | 109% | 121% | 76.2% | 19.2% | 24.1% | 20% | 20.9% | 19.3% | 21.2% | 119% | 108% | 123% | 116% | 92.6% | 13.5% | 13.7% | 15.4% | 16% | 16% | 19.3% | 107% | 128% | 114% | 131% | 96.4% | 18.9% | 17.3% | 20.3% | 17.4% | 19.5% | 22.4%
5 | N#C[C@@H]1C[C@@H]2C[C@@H]2N1C(=O)[C@@H](N)C12CC3CC(CC(O)(C3)C1)C2 | 139% | 118% | 124% | 134% | 129% | 129% | 127% | 106% | 96.6% | 32.2% | 5.88% | 120% | 109% | 118% | 124% | 109% | 116% | 111% | 110% | 113% | 112% | 67.3% | 122% | 125% | 106% | 125% | 131% | 123% | 132% | 122% | 118% | 97.9% | 44.6%
6 | COc1cc([C@@H]2c3cc4c(cc3[C@@H](O[C@@H]3O[C@@H]5CO[C@@H](C)O[C@H]5[C@H](O)[C@H]3O)[C@H]3COC(=O)[C@H]23)OCO4)cc(OC)c1O | 93.9% | 98.1% | 83.4% | 103% | 87.5% | 99.9% | 96.3% | 60.3% | 19.3% | 18.1% | 21.6% | 95.4% | 84.9% | 89.9% | 85.9% | 79.1% | 81.1% | 91.4% | 63% | 10.3% | 11.7% | 15.3% | 84.7% | 76.7% | 80.7% | 85.9% | 81.7% | 82.1% | 87.9% | 73.7% | 15.6% | 13.1% | 18.9%
